Laboratory results taken from PubChem BioAssay (NCI).
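In this assay, cells in 96-well plates receive the compound at five concentrations for 48 hours. Endpoints are linearly interpolated between the surrounding concentrations. At the TGI there is no net growth.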

Assays:
Assay in all cases: DTP human tumour cell line panel, 48 h
[1] = tested on: MDA-N
[2] = tested on: OVCAR-4 ovarian
[3] = tested on: NCI/ADR-RES ovarian
[4] = tested on: SF-268 CNS
[5] = tested on: UO-31 renal
[6] = tested on: U251 CNS
[7] = tested on: SN12C renal
[8] = tested on: NCI-H23 lung
[9] = tested on: SNB-19 CNS
[10] = tested on: M14 melanoma
[11] = tested on: MDA-MB-435
[12] = tested on: A498 renal
[13] = tested on: HT29 colon
[14] = tested on: SR leukemia
[15] = tested on: SK-MEL-5 melanoma
[16] = tested on: RXF 393 renal
[17] = tested on: ACHN renal
[18] = tested on: PC-3 prostate
[19] = tested on: COLO 205 colon

Compound	TGI [1]	TGI [2]	TGI [3]	TGI [4]	TGI [5]	TGI [6]	TGI [7]	TGI [8]	TGI [9]	TGI [10]	TGI [11]	TGI [12]	TGI [13]	TGI [14]	TGI [15]	TGI [16]	TGI [17]	TGI [18]	TGI [19]
COC(=O)c1cc(C)ccc1C1CN=NC12Cc1cccc(C)c1C2=O (stereo not drawn)	> 100 µM	> 100 µM	77.9 µM	> 100 µM	> 100 µM	> 100 µM	> 100 µM	> 100 µM	> 100 µM	38.9 µM	61.8 µM	> 100 µM	> 100 µM	> 100 µM	31.9 µM	> 100 µM	> 100 µM	–	–
C/C(=N/c1[nH]c(=O)cc2c1C(=O)CC2)N(C)C	> 200 µM	> 200 µM	> 200 µM	> 200 µM	> 200 µM	> 200 µM	> 200 µM	> 200 µM	> 200 µM	> 200 µM	> 200 µM	> 200 µM	> 200 µM	–	> 200 µM	> 200 µM	> 200 µM	> 200 µM	> 200 µM
C(=NCCCN1CCN(CCCN=Cc2cccc3ccccc23)CC1)c1cccc2ccccc12	> 100 µM	> 100 µM	> 100 µM	> 100 µM	> 100 µM	> 100 µM	> 100 µM	> 100 µM	> 100 µM	> 100 µM	96.8 µM	–	> 100 µM	> 100 µM	–	78.2 µM	> 100 µM	> 100 µM	> 100 µM
NCCCCN(CCCN)Cc1ccc2ccccc2c1	51.7 µM	> 100 µM	> 100 µM	44 µM	71 µM	> 100 µM	46.3 µM	> 100 µM	55 µM	> 100 µM	> 100 µM	> 100 µM	> 100 µM	–	> 100 µM	> 100 µM	53.8 µM	–	> 100 µM
COC(=O)CCc1ccc2c(c1)CC1(Cc3ccccc3C1)C2	> 100 µM	> 100 µM	> 100 µM	–	> 100 µM	> 100 µM	> 100 µM	> 100 µM	–	> 100 µM	> 100 µM	> 100 µM	> 100 µM	–	> 100 µM	> 100 µM	> 100 µM	> 100 µM	> 100 µM
CC(=O)NC1C(OC2C(CO)OC(OCC3OC(n4ccc(N)nc4=O)C(O)C3O)C(NC(C)=O)C2O)OC(CO)C(O)C1O (stereo not drawn)	–	> 100 µM	> 100 µM	> 100 µM	> 100 µM	> 100 µM	> 100 µM	> 100 µM	> 100 µM	> 100 µM	> 100 µM	> 100 µM	> 100 µM	> 100 µM	> 100 µM	> 100 µM	> 100 µM	> 100 µM	> 100 µM
